Assays:
PT45-P1res cells = experiment: Caspase-3/-7 assay in PT45-P1res cells; type: cell-based, human; details: inhibitor 10 μmol/L, 20 μg/mL etoposide 24 hours
Method: (a) PT45-P1 res cells were transfected with control siRNA or with two L1CAM specific siRNAs. Western blotting for the detection of full-length L1CAM or of HSP90 as a control for equal protein load was performed (upper panel). In parallel, siRNA transfected PT45-P1res cells were treated with 20 μg/mL etoposide or not for 24 hours and caspase-3/-7 activity was determined. (b) siRNA transfected PT45-P1res cells were subjected to L1CAM immunostaining (L1-11A antibody) or staining with an isotype matched control antibody followed by flow cytometry. One representative histogram is shown. (c) siRNA transfected PT45-P1res cells were analysed by western blotting for the detection of full-length L1 CAM, αv-integrin or HSP90 (d) After overnight siRNA transfection, cells were either left untreated or were either treated with 20 μg/mL etoposide or with 5 μg/mL gemcitabine for 24 hours, followed by either AnnexinV/PI staining and flow cytometry (AnnexinV positive cells over basal) or by caspase-3/-7 assay (n-fold induced caspase-3/-7 activity of basal). (e) PT45-P1res cells were either left untreated (w/o) or were treated with 20 μg/mL etoposide in the absence (w/o) or presence of either 5 μg/mL anti L1CAM antibody (Clone L1-11A) or 5 μg/mL isotype matched control antibody. After 24 hours, cells were analysed by AnnexinV/PI staining or by caspase-3/-7 assay. Means±SD from three independent experiments are shown. * indicates p<0.05.
As described elsewhere (Sebens Müerköster et al., 2006), apoptosis was determined by staining with annexinV/propidium iodide (Biocarta, Hamburg, Germany) and subsequent fluorescence flow cytometry (GalaxyArgon Plus; DAKO Cytomation, Hamburg, Germany) using the FLOMAX software, and by the detection of caspase-3/-7 activity using a homogeneous luminescent assay (Promega, Mannheim, Germany). All samples were measured in duplicates.
For L1CAM transfection, PT45-P1 cells were seeded into 6 well plates (2×10^5 cells/well), were grown overnight, followed by transfection with 5 μL/well DIMRIE reagent (Invitrogen) and 0.6 μg/well of the following plasmids: pcDNA3.1 (mock) or pcDNA3.1-L1CAM (L1CAM). Upon transfection for 18 hours, 1 mL medium containing 20% FCS was added and cells were left untreated or were treated as indicated for further 24 hours. For knock down of L1CAM, PT45-P1res cells were seeded into 12 well plates (1×10^5 cells/well), were grown overnight followed by transfection with 12 μL/well RNAiFect reagent (Invitrogen) and 2 μg/well of either Stealth negative control siRNA (Invitrogen) or Stealth L1CAM siRNA (Invitrogen). After overnight transfection, cells were either left untreated or treated as indicated for further 24 hours.

L1CAM = L1CAM expression in PT45-P1res cells (western blotting, flow cytometry, real-time PCR); type: cell-based, human; details: inhibitor 10 μmol/L, 24 hours
Method: After washing in PBS, cells grown in 6-well culture plates were detached with 5 mmol/L EDTA in PBS and then washed with PBS once again. Blocking was conducted in 1% BSA/PBS for 60 min. at room temperature followed by incubation with the anti L1CAM antibody L1-11A or an isotype matched control antibody (1:1000, in 1% BSA/PBS) at 4° C. overnight. Then, cells were washed three times in PBS followed by incubation (60 min, 37° C.) with a goat-anti mouse antibody conjugated with Alexa flour 488 (Dianova, Hamburg, Germany) diluted 1:500 in 1% BSA/PBS. After washing in PBS, cells were resuspended in 500 μL PBS and analysed by fluorescence flow cytometry.
Cells were seeded into 6 well and 12 well plates, respectively, and transfected or treated as indicated. Then, cells were washed once with PBS and lysed with 1 volume of 2×SDS sample buffer (128 mmol/L Tris-Base, 4.6% SDS, 10% glycerol). Samples were heated for 5 minutes at 95° C. and put on ice for 2 minutes. Protein concentrations were determined using the Dc Protein assay (BioRad). Ten μg of protein adjusted to an appropriate volume of SDS sample buffer containing 0.2 mg/mL bromphenolblue (Serva, Heidelberg, Germany) and 2.5% β-mercaptoethanol (Biomol, Hamburg, Germany) were submitted to electrophoresis on a 4-20% ProGel-Tris-glycin-gel (Anamed, Darmstadt, Germany) and immunoblotting was performed as described previously (Arlt et al, 2001). For detection of L1CAM, a monoclonal antibody (clone UJ127 from Acris Antibodies) was diluted at a concentration of 0.4 μg/mL in 5% nonfat milk powder and 0.05% Tween in TBS (blotto) and incubated overnight at 4° C. For detection of the cytoplasmic domain of L1CAM, the pcytL1 antibody (Mechtersheimer et al., 2001) was used at a concentration of 1 μg/mL in blotto and incubated overnight at 4° C. As control of equal protein load, a polyclonal rabbit antibody for HSP90 (Santa Cruz, Heidelberg, Germany) was diluted 1:2000 in blotto. The mouse anti CD51 antibody from Beckman Coulter GmbH (Krefeld, Germany) was used at a concentration of 1:500 in blotto for detection of human αv integrin. Incubation with the primary antibodies was performed overnight at 4° C. For detection of the primary antibodies, anti-mouse and anti-rabbit HRP-linked antibodies (Cell Signaling), respectively, were used at a dilution of 1:2000 in blotto-TBST at room temperature for 1 hour. After washing in TBST, blots were developed using the LumiGlo peroxidase detection kit (Cell Signaling).
2 μg of total RNA were reverse-transcribed into single-stranded cDNA, as described previously (Schafer et al., 1999). Two μL of cDNA and 0.2 μmol/L gene-specific primers were adjusted with RNAse-free water to a volume of 15 μL. To this mixture, 15 μL of iQ SYBR Green Supermix (BioRad) were added. Primers for the detection of L1CAM (Gavert et al., 2005) were used under the following conditions: 95° C./1 min; 95° C./1 min, 52° C./30 see, 72° C./30 see for 40 cycles; 72° C./10 min. Primers for the detection of iNOS were from Biosource (Ratingen, Germany) and used under the following PCR conditions: 95° C./5 min; 95° C./45 sec, 60° C./45 sec, 72° C./45 sec for 40 cycles; 72° C./10 min. For control, β-actin was amplified in parallel using primers from BD Biosciences Clontech. […] Data were collected during annealing steps and were further analysed by using the i-Cycler iQ Optical system software (BioRad). All samples were analysed in duplicates and data are expressed as amount of mRNA in arbitrary units.

CC(C)C[C@H](CC(=O)NO)C(=O)N[C@@H](Cc1ccc2ccccc2c1)C(=O)N[C@@H](C)C(N)=O [TAPI-0]
apoptosis induction after etoposide treatment (caspase-3/-7) (PT45-P1res cells): did not significantly affect apoptosis induction after etoposide treatment
L1CAM expression (full-length 220 kDa and 32 kD fragment) (L1CAM): neither of the inhibitors changed L1 CAM expression
